{"source": "patent US20020183305A1", "about": "(Schering Corporation, priority 2001, published 2002)", "system": "Hypercholesterolemic Golden Syrian hamsters", "assay": "In vivo efficacy in cholesterol-fed hypercholesterolemic hamsters (plasma cholesterol, plasma triglyceride, hepatic cholesteryl ester)", "key": {"[1]": {"settings": "cholesterol-fed hamsters, versus Control, Table 1"}}, "protocol": "Male Golden Syrian hamsters (Charles River Labs, Wilmington, MA) weighing between 100 and 125 g were fed Wayne rodent chow until study onset. At study onset (Day 1) animals were separated into groups (n=4-6/group) and fed chow supplemented with 0.5% by weight of cholesterol (Research Diets Inc., New Brunswick, NJ). The Control and Test compounds were administered once daily for 7 days, starting on Day 1 via oral gavage in 0.2 ml corn oil. Corn oil was used as the Control.\nOn Day 7, blood was collected into tubes containing ethylenediaminetetraacetic acid (EDTA), and plasma was prepared by low speed centrifugation at 40C. Liver samples (0.5 g) were taken for neutral lipid analyses.\nNonfasted plasma cholesterol levels were determined by a modification of the cholesterol oxidase method, in which the reagents were available in a kit form from Wako Pure Chemicals Industries, Ltd. (Osaka, Japan). […] Assays were carried out at 37° C. for 10 min, along with cholesterol standards (Sigma Chemical Co., St. Louis, Mo.) and the resultant red quinone pigment's absorbance was determined spectrophotometrically at 505 nm.\nSamples of liver (0.5 g) were lipid extracted. Lipid extracts were dried under nitrogen into HPLC sample vials, resuspended in hexane and injected onto a Zorbax Sil (4.6×25 cm) silica column. […] Lipids were detected by absorbance at 206 nm and quantitated by computer integration (System Gold, Beckman) of elution profiles. […] Cholesteryl ester content of liver-derived samples was derived from a standard curve constructed using known amounts of cholesteryl oleate.", "data": [{"smiles": "COc1ccc([C@@H]2[C@@H](CCCc3ccccc3)C(=O)N2c2ccc(OC)cc2)cc1", "note": "[Compound XII]", "values": [{"measurement": "effect on accumulation of hepatic cholesteryl esters (in words)", "setting": "[1]", "result": "reduced"}, {"measurement": "effect on plasma cholesterol levels (in words)", "setting": "[1]", "result": "reduced"}, {"measurement": "Hepatic Cholesteryl Ester", "setting": "male hamsters fed chow with 0.5% cholesterol, oral gavage in corn oil once daily for 7 days, liver Day 7, Compound XII 3 mg/kg/day, niacin 100 mg/kg/day", "result": "12.75 ± 1.12", "unit": "mg/g"}, {"measurement": "Plasma Cholesterol", "setting": "male hamsters fed chow with 0.5% cholesterol, oral gavage in corn oil once daily for 7 days, nonfasted plasma Day 7, Compound XII 3 mg/kg/day, niacin 100 mg/kg/day", "result": "214 ± 13", "unit": "mg/dL"}, {"measurement": "Plasma Triglyceride", "setting": "male hamsters fed chow with 0.5% cholesterol, oral gavage in corn oil once daily for 7 days, plasma Day 7, Compound XII 3 mg/kg/day, niacin 100 mg/kg/day", "result": "200 ± 30", "unit": "mg/dL"}]}]}
